Series [1] can be described thus: Competition for the complexation with colored indicators. The conditions noted are these: complex with β-cyclodextrin. The series is classed as physicochemical. The source says:
In this case, the cetirizine comes into competition with the colored indicator for the formation of an inclusion complex. The changes in the visible-range spectrum thus make it possible to determine whether or not cetirizine forms an inclusion complex with cyclodextrin. Two acid-base indicators were used; crystal violet and methyl orange. In the case of the acid-base indicators, the changes in the absorption spectrum due to complexation with a cyclodextrin are often large given that the complexation brings about a change in the pK of the indicator. If the pH of the solution is close to the pK, the addition of a cyclodextrin to an acid-base indicator solution brings about ionization or deionization of the indicator, which is reflected by a change in the color of the solution. Consequently, the absorption maximum in the visible spectrum is displaced as a function of the degree of complexation. […] (J.

For series [2] the following is noted: pH 3.4. The method, then:
Two solutions A and B were prepared. […] These two solutions were stirred at room temperature until thermodynamic equilibrium was reached.

The values below come from patent publication US6455533B1, “Pharmaceutical compositions for oral administration, comprising an active substance and a cyclodextrin” (UCB, S.A., priority 1997, dated 2002).

Structures can show the parent of a compound that is named as a salt.

As for `O=C(O)COCCN1CCN(C(c2ccccc2)c2ccc(Cl)cc2)CC1` (stereo not drawn) [cetirizine dihydrochloride, 2-[2-[4-[(4-chlorophenyl)phenylmethyl]-1-piperazinyl]ethoxy]acetic acid], the entries for the “association constant (average value)” value in series [1] (competition with crystal violet) and in series [1] (competition with methyl orange) were 3292 mol⁻¹ and 3587 mol⁻¹, respectively. Regarding `OC[C@H]1O[C@@H]2O[C@H]3[C@H](O)[C@@H](O)[C@@H](O[C@H]4[C@H](O)[C@@H](O)[C@@H](O[C@H]5[C@H](O)[C@@H](O)[C@@H](O[C@H]6[C@H](O)[C@@H](O)[C@@H](O[C@H]7[C@H](O)[C@@H](O)[C@@H](O[C@H]8[C@H](O)[C@@H](O)[C@@H](O[C@H]1[C@H](O)[C@H]2O)O[C@@H]8CO)O[C@@H]7CO)O[C@@H]6CO)O[C@@H]5CO)O[C@@H]4CO)O[C@@H]3CO` [β-cyclodextrin], the “increase of solubility (factor)” value in series [2] is listed as “at least 30”.
